Laboratory results taken from US20230286929A1, “AROMATIC BRIDGED RING AMIDE DERIVATIVES FOR THE TREATMENT AND PROPHYLAXIS OF HEPATITIS B VIRUS INFECTION” (Hoffmann-La Roche Inc., priority 2020, published 2023).

Experiments:
Type in all cases: cell-based
HBsAg = experiment: PHH HBV natural infection assay, HBsAg (alphalisa); conditions: Hepatitis B virus, Hepatocyte, 72 h, read-out: HBsAg IC50
Experimental: (§1) Detailed procedures regarding primary human hepatocyte (PHH) HBV natural infection assay are described as below. One tube of frozen PHH (10 million cells) is thawed in 37° C. water bath and then transferred to 20 mL of PHH thawing medium (Sigma, InVitroGRO HT Medium, Cat. S03319) with gently mixing. The cells were then centrifuged at […] for 5 min, the supernatant was discarded and the tube was refilled with 25 mL of PHH plating medium (Sigma, InVitroGRO CP Medium, Cat. 503317). The tube was shaken very gently to re-suspend all cells. 50 μl of cells were transferred to each well 384-well collagen I coated plate with appropriate liquid handling equipment, e.g. Integra VIAFLO384 or Agilent Bravo. The cells were then cultured for 24 hours in a cell incubator. For HBV infection, after PHH attachment on the culture plate, the plating medium was removed and replenished with PHH culture medium containing HBV virus. The PHH culture medium was prepared with Dulbecco's Modified Eagle Medium (DMEM)/F12 (1:1 in volume ratio) containing 10% fetal bovine serum (Gibco, Cat. 10099141), […] (Gibco, Cat. PHG03I1L), 20 ng/mL dexamethasone (Sigma, Cat. D4902-100 mg), 250 ng/mL human recombinant insulin (Gibco, Cat. 41400045) and 100 U/mL penicillin. HBV virus at 200 genome equivalent (GE) per cell with 4% PEG8000 (Sigma, Cat. P1458) containing culture medium were added to the PHH culture medium for infection. The cells were then cultured for 24 hours in cell incubator. Then the cell culture supernatant was removed. The HBV-infected PHH were cultured with sandwich culture method with PHH culture medium containing 1% DMSO and 0.25 mg/mL matrix gel for 72 hours. The supernatant was then refreshed with PHH culture medium containing different concentrations of testing compounds for two times with 72-hour interval. At the end of treatment, the supernatant was collected for viral markers measurements, including HBsAg, HBeAg, HBV DNA and cytotoxicity. HBsAg and HBeAg were detected using alphalisa method using their specific antibodies. For HBV DNA detection, HBV DNA Quantitative Fluorescence Diagnostic Kit (Sansure Biotech Inc.) was used following the manufacture's protocol. Cytotoxicity was determined using Cell Counting Kit-8 (CCK8, Dojindo Molecular Technologies, Inc.).
(§2) The compounds of the present invention were tested for their capacity to inhibit HBsAg and HBeAg as described herein.

HBeAg = experiment: PHH HBV natural infection assay, HBeAg (alphalisa); conditions: Hepatitis B virus, Hepatocyte, 72 h, read-out: HbeAg IC50
Experimental: as §1, §2

[1] = Cytotoxicity in PHH natural infection assay (Cell Counting Kit-8); conditions: HBV-infected primary human hepatocytes, CCK8
Experimental: as §1

Compound `CS(=O)(=O)c1cccc(C(=O)NC23CC(c4nc5cc(Cl)ccc5o4)(C2)C3)c1` [Example 22, N-[3-(5-chloro-1,3-benzoxazol-2-yl)-1-bicyclo[1.1.1]pentanyl]-3-methylsulfonyl-benzamide] has an IC50 (HBsAg) of 3 µM, an IC50 (HBeAg) of 2.33 µM and a CC50 at 144 h [1] greater than 100 µM.
In the case of `O=C(NC12CC(c3nc4cc(Cl)ccc4o3)(C1)C2)c1ccnc(C(F)(F)F)c1` [Example 23, N-[3-(5-chloro-1,3-benzoxazol-2-yl)-1-bicyclo[1.1.1]pentanyl]-2-(trifluoromethyl)pyridine-4-carboxamide], the IC50 (HBsAg) is reported as 2.05 µM, the IC50 (HBeAg) is reported as 1.7 µM and the CC50 at 144 h [1] is reported as 96.9 µM.
Compound `O=C(NC12CC(c3nc4cc(Cl)ccc4o3)(C1)C2)c1cncc(C(F)(F)F)c1` [Example 24, N-[3-(5-chloro-1,3-benzoxazol-2-yl)-1-bicyclo[1.1.1]pentanyl]-5-(trifluoromethyl)pyridine-3-carboxamide] has an IC50 (HBsAg) of 5.23 µM, an IC50 (HBeAg) of 8.82 µM and a CC50 at 144 h [1] greater than 100 µM.
Compound `O=C(NC12CC(c3nc4cc(Cl)ccc4o3)(C1)C2)c1ccc(C(F)(F)F)nc1` [Example 25, N-[3-(5-chloro-1,3-benzoxazol-2-yl)-1-bicyclo[1.1.1]pentanyl]-6-(trifluoromethyl)pyridine-3-carboxamide] has an IC50 (HBsAg) of 8.71 µM, an IC50 (HBeAg) of 4.36 µM and a CC50 at 144 h [1] greater than 100 µM.
For `O=C(NC12CC(c3nc4cc(Cl)ccc4o3)(C1)C2)c1cnc(C(F)(F)F)nc1` [Example 26, N-[3-(5-chloro-1,3-benzoxazol-2-yl)-1-bicyclo[1.1.1]pentanyl]-2-(trifluoromethyl)pyrimidine-5-carboxamide], the IC50 (HBsAg) was 6.29 µM, the IC50 (HBeAg) was 3.67 µM and the CC50 at 144 h [1] was 88.2 µM.
`O=C(NC12CC(c3nc4cc(Cl)ccc4o3)(C1)C2)c1ccc(C(F)(F)F)nn1` [Example 27, N-[3-(5-chloro-1,3-benzoxazol-2-yl)-1-bicyclo[1.1.1]pentanyl]-6-(trifluoromethyl)pyridazine-3-carboxamide] showed an IC50 (HBsAg) of 3.85 µM, an IC50 (HBeAg) of 1.12 µM and a CC50 at 144 h [1] greater than 100 µM.
`O=C(NC12CC(c3nc4cc(Cl)ccc4o3)(C1)C2)c1cc(Cl)ccc1Cl` [Example 28, 2,5-dichloro-N-[3-(5-chloro-1,3-benzoxazol-2-yl)-1-bicyclo[1.1.1]pentanyl]benzamide] showed an IC50 (HBsAg) of 9.97 µM, an IC50 (HBeAg) of 10.1 µM and a CC50 at 144 h [1] greater than 100 µM.
`CS(=N)(=O)c1cccc(C(=O)NC23CC(c4nc5cc(Cl)ccc5o4)(C2)C3)c1` (stereo not drawn) [Example 29, N-[3-(5-chloro-1,3-benzoxazol-2-yl)-1-bicyclo[1.1.1]pentanyl]-3-(methylsulfonimidoyl)benzamide] gave an IC50 (HBsAg) of 3.85 µM, an IC50 (HBeAg) of 3.06 µM and a CC50 at 144 h [1] greater than 100 µM.
In the case of `O=C(NC12CC(c3nc4cc(Cl)ccc4o3)(C1)C2)C1CC2(C1)CS(=O)(=O)C2` [Example 30, N-[3-(5-chloro-1,3-benzoxazol-2-yl)-1-bicyclo[1.1.1]pentanyl]-2,2-dioxo-2lambda6-thiaspiro[3.3]heptane-6-carboxamide], the IC50 (HBsAg) is reported as 9.82 µM, the IC50 (HBeAg) is reported as 7.77 µM and the CC50 at 144 h [1] is reported as greater than 100 µM.
Work on `CCCC(=O)NS(=O)(=O)c1ccc(C(=O)NC23CC(c4nc5cc(Cl)ccc5o4)(C2)C3)o1` [Example 31, 5-(butanoylsulfamoyl)-N-[3-(5-chloro-1,3-benzoxazol-2-yl)-1-bicyclo[1.1.1]pentanyl]furan-2-carboxamide] yielded an IC50 (HBsAg) of 3.63 µM, an IC50 (HBeAg) of 4.78 µM and a CC50 at 144 h [1] greater than 100 µM.
For `CS(=O)(=O)c1ccc(C(=O)NC23CC(c4nc5ccc(Cl)cc5o4)(C2)C3)o1` [Example 32, N-[3-(6-chloro-1,3-benzoxazol-2-yl)-1-bicyclo[1.1.1]pentanyl]-5-methylsulfonyl-furan-2-carboxamide], the IC50 (HBsAg) was 5.67 µM, the IC50 (HBeAg) was 3.46 µM and the CC50 at 144 h [1] was greater than 100 µM.
Work on `O=C(NC12CC(c3nc4ccc(Cl)cc4o3)(C1)C2)c1ccc(S(=O)(=O)C2CC2)o1` [Example 33, N-[3-(6-chloro-1,3-benzoxazol-2-yl)-1-bicyclo[1.1.1]pentanyl]-5-cyclopropylsulfonyl-furan-2-carboxamide] yielded an IC50 (HBsAg) of 0.792 µM, an IC50 (HBeAg) of 0.58 µM and a CC50 at 144 h [1] greater than 100 µM.
With `O=C(NC12CC(c3nc4ccc(Cl)cc4o3)(C1)C2)c1ccc(S(=O)(=O)CC2CC2)o1` [Example 34, N-[3-(6-chloro-1,3-benzoxazol-2-yl)-1-bicyclo[1.1.1]pentanyl]-5-(cyclopropylmethylsulfonyl)furan-2-carboxamide] the IC50 (HBsAg) was 3.54 µM, the IC50 (HBeAg) was 2.79 µM and the CC50 at 144 h [1] was 95.4 µM.
Work on `CS(=N)(=O)c1ccc(C(=O)NC23CC(c4nc5ccc(Cl)cc5o4)(C2)C3)o1` (stereo not drawn) [Example 35, N-[3-(6-chloro-1,3-benzoxazol-2-yl)-1-bicyclo[1.1.1]pentanyl]-5-(methylsulfonimidoyl)furan-2-carboxamide] yielded an IC50 (HBsAg) of 4.29 µM, an IC50 (HBeAg) of 3.51 µM and a CC50 at 144 h [1] greater than 100 µM.
In the case of `CS(=O)(=O)c1cccc(C(=O)NC23CC(c4nc5ccc(Cl)cc5o4)(C2)C3)c1` [Example 36, N-[3-(6-chloro-1,3-benzoxazol-2-yl)-1-bicyclo[1.1.1]pentanyl]-3-methylsulfonyl-benzamide], the IC50 (HBsAg) is reported as 2.25 µM, the IC50 (HBeAg) is reported as 2.5 µM and the CC50 at 144 h [1] is reported as greater than 100 µM.
`O=C(NC12CC(c3nc4ccc(Cl)cc4o3)(C1)C2)c1ccnc(C(F)(F)F)c1` [Example 37, N-[3-(6-chloro-1,3-benzoxazol-2-yl)-1-bicyclo[1.1.1]pentanyl]-2-(trifluoromethyl)pyridine-4-carboxamide] showed an IC50 (HBsAg) of 4.17 µM, an IC50 (HBeAg) of 3.63 µM and a CC50 at 144 h [1] greater than 100 µM.
Compound `O=C(NC12CC(c3nc4ccc(Cl)cc4o3)(C1)C2)c1ccnc(S(=O)(=O)C2CC2)c1` [Example 38, N-[3-(6-chloro-1,3-benzoxazol-2-yl)-1-bicyclo[1.1.1]pentanyl]-2-cyclopropylsulfonyl-pyridine-4-carboxamide] has an IC50 (HBsAg) of 6.65 µM, an IC50 (HBeAg) of 4.48 µM and a CC50 at 144 h [1] greater than 10 µM.
Compound `CS(=O)(=O)Cc1ccc(C(=O)NC23CC(c4nc5ccc(Cl)cc5o4)(C2)C3)o1` [Example 39, N-[3-(6-chloro-1,3-benzoxazol-2-yl)-1-bicyclo[1.1.1]pentanyl]-5-(methylsulfonylmethyl)furan-2-carboxamide] has an IC50 (HBsAg) of 0.648 µM, an IC50 (HBeAg) of 0.75 µM and a CC50 at 144 h [1] greater than 100 µM.
Work on `CS(=N)(=O)Cc1ccc(C(=O)NC23CC(c4nc5ccc(Cl)cc5o4)(C2)C3)o1` (stereo not drawn) [Example 40, N-[3-(6-chloro-1,3-benzoxazol-2-yl)-1-bicyclo[1.1.1]pentanyl]-5-[(methylsulfonimidoyl)methyl]furan-2-carboxamide] yielded an IC50 (HBsAg) of 6.99 µM, an IC50 (HBeAg) of 4.07 µM and a CC50 at 144 h [1] greater than 100 µM.
In the case of `CS(=O)(=O)Cc1ccc(C(=O)NC23CC(c4nc5cc(Cl)cnc5o4)(C2)C3)o1` [Example 41, N-[3-(6-chlorooxazolo[5,4-b]pyridin-2-yl)-1-bicyclo[1.1.1]pentanyl]-5-(methylsulfonylmethyl)furan-2-carboxamide], the IC50 (HBsAg) is reported as 5.7 µM, the IC50 (HBeAg) is reported as 6.21 µM and the CC50 at 144 h [1] is reported as greater than 100 µM.
`O=C(NC12CC(c3nc4cc(Cl)cnc4o3)(C1)C2)c1ccnc(C(F)(F)F)c1` [Example 42, N-[3-(6-chlorooxazolo[5,4-b]pyridin-2-yl)-1-bicyclo[1.1.1]pentanyl]-2-(trifluoromethyl)pyridine-4-carboxamide] showed an IC50 (HBsAg) of 8.83 µM, an IC50 (HBeAg) of 10.6 µM and a CC50 at 144 h [1] of 92 µM.
